Among the data in ChEMBL document CHEMBL1128755, “LTD4 Receptor binding activity of novel pyridine chromanols: qualitative correlation with pKa” (Bioorg Med Chem Lett, 1995) are pKa, Ki and logP values, retold here.

Where only a bound is given, the exact number is not on record here.

What is called pKa is the negative logarithm of the acid dissociation constant. A higher pKa goes with a group that holds its proton tightly. Usually Ki stands for the dissociation constant of the complex between target and ligand, obtained from inhibition or displacement. A word on the logP: it is the decadic logarithm of the partition coefficient of the neutral form, usually between octanol and water.

Series [1] can be described thus: Association constant (pKa) was determined. The class given is physicochemical.
Series [2] concerns the target T1, Cysteinyl leukotriene receptor 1 (Cavia porcellus, UniProt Q2NNR5).
T1 sequence (Q2NNR5 whole entry): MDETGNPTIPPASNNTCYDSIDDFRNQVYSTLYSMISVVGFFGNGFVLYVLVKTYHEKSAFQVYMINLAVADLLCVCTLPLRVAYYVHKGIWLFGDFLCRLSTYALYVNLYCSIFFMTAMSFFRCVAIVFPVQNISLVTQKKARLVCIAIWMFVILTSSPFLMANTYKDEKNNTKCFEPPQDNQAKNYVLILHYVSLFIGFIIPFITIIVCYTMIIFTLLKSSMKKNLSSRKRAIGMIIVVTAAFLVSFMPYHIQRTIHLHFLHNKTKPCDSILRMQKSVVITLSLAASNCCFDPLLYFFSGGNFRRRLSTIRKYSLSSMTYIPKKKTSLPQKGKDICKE
As to the kind of experiment: Compound was tested for the inhibition of [3H]leukotriene D4 binding to LTD4 receptor in guinea pig lung membranes. The class given is cell membranes, Membrane.

Series [3] can be described thus: Partition coefficient (logP). The class given is physicochemical. Particulars: octanol/water.

The molecule `O[C@@H]1c2cc(OCc3cccc(Cl)n3)ccc2OC[C@@H]1Cc1cccnc1` came in with a pKa in series [1] of 0.72. Further, the Ki in series [2] is 23400 nM. In series [3], this molecule displayed a logP of 1.27.

`Cc1nc(COc2ccc3c(c2)[C@@H](O)[C@@H](Cc2cccnc2)CO3)ccc1Br` registered a pKa in series [1] of 3.55. Besides, the Ki in series [2] was 1560 nM. In addition, the log partition coefficient (logP) in series [3] came out at 2.09.

`O[C@@H]1c2cc(OCc3ccc4ccccc4n3)ccc2OC[C@@H]1Cc1cccnc1`: the pKa in series [1] is 4.81. Besides, the Ki in series [2] is 1640 nM. In series [3], this molecule registered a lipophilicity (logP) of 2.04.

`Cc1cccc(COc2ccc3c(c2)[C@@H](O)[C@@H](Cc2cccnc2)CO3)n1` showed a pKa in series [1] of 5.96. In series [2], the inhibitory constant (Ki) was > 100000 nM. The logP in series [3] turned out to be 1.11.

In the case of `c1ccc2ncccc2c1` [QUINOLINE], the pKa in series [1] came out at 4.81.

Regarding `Cc1nc(COc2ccc3c(c2)[C@@H](O)[C@@H](Cc2cccnc2)CO3)ccc1[N+](=O)[O-]`, the pKa in series [1] is 1.52. This molecule also showed a Ki in series [2] of 240 nM. The molecule also gave a logP in series [3] of 0.99.

With `O[C@@H]1c2cc(OCc3cccc(F)n3)ccc2OC[C@@H]1Cc1cccnc1`, the pKa in series [1] is -0.44. Further, in series [2], the Ki is > 100000 nM. Besides, the logP in series [3] was determined as 0.84.

`O[C@@H]1c2cc(OCc3ccccn3)ccc2OC[C@@H]1Cc1cccnc1`: the pKa in series [1] stood at 5.25. Moreover, the inhibition constant Ki in series [2] was > 100000 nM. The molecule also returned a logP in series [3] of 0.66.
